According to patent publication US9844535B2, “SHP2 inhibitors and methods of treating autoimmune and/or glomerulonephritis-associated diseases using SHP2 inhibitors” (Indiana University Research and Technology Corporation, priority 2013, dated 2017):

Key:
Type in all cases: in vivo, mouse
ERK and AKT signaling = assay: Immunoblot of ERK/AKT signaling in tissue lysates of inhibitor-treated MRL/lpr mice; conditions: 7.5 mg/kg daily for 4 weeks
Experimental: Briefly, female MRL/MpJ-fas lpr (MRL/lpr), MRL/Mpj and C57BL/6J mice were purchased from the Jackson Laboratory (Bar Harbor, Me.). For experiments, mice within each group were ip injected with either vehicle (DMSO) or the SHP2 inhibitor (7.5 mg/kg/per day). […] Body weight was measured daily and treatment dosage was adjusted accordingly. At the end of the treatment period, mice were sacrificed with CO2 exsanguination and SLE targeted organs were removed. For each mouse, spleen, kidney, and heart weight were calculated. In addition, total animal body weight and tibia length were measured. Peripheral blood/serum was also collected for use in the cytokine assays described below.
Tissues (spleen, kidney, heart) isolated from either vehicle (DMSO) treated or SHP2 inhibitor treated WT C57/B16, MRL/MpJ, or MRL/lpr female mice were dissected, perfused in PBS, and immediately frozen in liquid N2. Whole-cell lysates were prepared by homogenizing the tissue in radioimmunoprecipitation (RIPA) buffer (25 mmol/l Tris-HCl [pH 7.4], 150 mmol/l NaCl, 0.1% SDS, 1% NP-40, 0.5% sodium deoxycholate, 5 mmol/l EDTA, 1 mmol/l NaF, 1 mmol/l sodium orthovanadate, and a protease cocktail) at 4° C., followed by clarification at 14,000 g. […] Bands were visualized with enhanced chemiluminescence and quantified by densitometry (developed by Wayne Rasband; ImageJ 1.41 software, http://rsbweb.nih.gov/ij/). […]

IFNγ, TNFα, IL17, IL6 = assay: Cytokine ELISA; conditions: SLE-prone mice
Text: ELISA assays were used to detect for the presence of various cytokines in mouse serum isolated from vehicle or drug-treated animals or from medium supernatant isolated from tissue cell cultures as described above. In addition, ELISA was also used to detect total IgG and dsDNA IgG from mouse serum and for the assay to detect urine albumin and creatinine levels. ELISA detection kits for mouse cytokines IL-6 and TNFα were purchased from eBioscience, mouse cytokines IL-17A, IFNγ, and human IFNγ were purchased from Biolegend, kits for the albumin and creatinine were purchased from Exocell, and kits for the serum IgG and anti-dsDNA IgG were purchased from Alpha Diagnostic (San Antonio, Tex.). ELISAs were all performed according to the manufacturer's instructions.
Cytokine analyses: In brief, capture antibodies for each cytokine were precoated on 96-well plates overnight at 4° C., then 100 μl of 5× diluted serum or 300× diluted supernatant medium was loaded on the precoated wells in duplicate and left overnight at 4° C. (with the exception of the human IFNγ assay isolated from supernatant medium, where the dilution used was 1:30). As per the protocol instructions, enzyme-antibody conjugate, TMB substrate and stopping buffer were added sequentially. The colorimetric analysis, as measured by optical density (OD) within each well, was determined using a microplate reader set at a wavelength of 450 nm. The cytokine concentrations were calculated and measured against a standard curve for each cytokine.
An ELISA was conducted to detect concentrations of IFNγ, TNFα, IL17, and IL6 in T cells derived from spleen.

[1] = tested on: circulating blood cells of SLE-prone mice; assay: Blood cell counts and circulating lymphocyte subsets
Experimental: 50 μl of peripheral blood was collected from mice upon sacrifice and was mixed with 5 mM EDTA anticoagulant to be used for blood cell counts (Hemavet 850FS), to determine numbers of white blood cells (neutrophil, lymphocytes, monocytes, eosinophil and basophil), red blood cells and platelets. In addition, peripheral blood isolated from MRL/lpr mice either treated with vehicle (DMSO) or SHP2 inhibitor was used to count the percentage of lymphocyte subsets, including B cells, CD4+, CD8+ and double negative (DN) T cells through flow cytometry (see below).
To identify immune cell subsets, isolated cells from tissues were immunostained with mouse antibodies targeted against CD3E (145-2C11, BioLegend, San Diego, Calif.), CD4 (GK1.5, BioLegend), CD8 (53-6.7, eBioscience, San Diego, Calif.), CD45 (30-F11, eBioscience), CD 19 (6125, BioLegend), CD11b (M1170, BioLegend), TCRαβ (H57-597, BioLegend), CD44 (IM7, BioLegend), B220 (RA3-6B2, B.D. […], BD Biosciences, San Jose Calif.), CD138 (281-2, BioLegend), CD38 (CD28.2, BioLegend), Gr-1 (RB6.805, eBioscience), CD62L (DREG-56, BioLegend), and CD25 (PC61, BioLegend) for 30 minutes at 4° C. Samples were acquired on a LSR II flow cytometer (BD Biosciences) and the percentage of each sub-population of cells (B, T, monocytes, macrophage and neutrophils) was assessed by FlowJo [version 7.2.2 (Tree Star)]. Total cell numbers were counted using a hemocytometer. Absolute cell numbers for each sub-population were calculated based on the percentage of each population.

Compound: Cn1c(-c2cccc(NC(=O)C(=O)Nc3ccc(-c4ccsc4)cc3)c2)c(I)c2cc(C(=O)O)c(O)cc21 [11a-1]
- downstream ERK and AKT signaling in tissue lysates (ERK and AKT signaling): reversed aberrant downstream ERK and AKT signaling
- IFNγ (IFNγ, TNFα, IL17, IL6): significant decreases
- IL6 (IFNγ, TNFα, IL17, IL6): No effects
- IL17 (IFNγ, TNFα, IL17, IL6): No effects
- TNFα (IFNγ, TNFα, IL17, IL6): No effects
- circulating CD4 and CD8 positive T cell populations ([1]; SLE mice): not the CD4 and CD8 positive T cell populations
- circulating T cell leukocyte population ([1]; SLE mice): significantly altered in SLE and inhibited
- circulating double negative T cells ([1]; SLE mice): only the double negative cells
- circulating leukocytes ([1]; SLE mice vs vehicle): significantly reduced
- circulating neutrophils, monocytes, eosinophils, basophils ([1]; SLE mice vs vehicle): not neutrophils, monocytes, eosinophils, or basophils
- red blood cells or platelets ([1]; SLE mice vs vehicle): no effects observed
- white blood cell (WBC) population ([1]; SLE mice vs vehicle): specifically targets the white blood cell (WBC) population
